Entries after “also recorded” stand apart in the source; their conditions may differ.
Tests used:
NRF2-regulated genes = test: mRNA of NRF2-regulated genes in MEFs (qRT-PCR); format: cell-based, mouse; conditions: PHAR 10 μM, 8 h
Description: FIG. 4. PHAR activates the NRF2 pathway. MEFs in serum-depleted conditions were subjected to (A-C) 1 μM, 3 μM, or 10 μM of PHAR and 10 μM of SFN as a positive control for 16 h; or (D-F) 10 μM of PHAR for the indicated times. In both experiments, 0.1% DMSO was used as a vehicle. A), representative immunoblots of NRF2, HO1, KEAP1, LAMINB, and GAPDH as loading controls. B) and C), densitometric analysis of NRF2 and HO1 protein levels of the representative immunoblots depicted in (A), expressed as a ratio of NRF2/LAMINB or HO1/GAPDH. The data is depicted as means±SEM (n=3). Statistical analysis was performed with one-way ANOVA followed by the Bonferroni test to check inter-group differences. *p<0.05; ***p<0.001 vs. 0. D), representative immunoblots of NRF2, HO1, KEAP1, LAMINB, and GAPDH as loading controls. E) and F), Densitometric analysis of NRF2 and HO1 protein levels of the representative immunoblots of (D), expressed as a ratio of NRF2/LAMINB or HO1/GAPDH. The data is depicted as means±SEM (n=3). Statistical analysis was performed with one-way ANOVA followed by the Bonferroni test to check inter-group differences. *p<0.05; ***p<0.001 vs. 0. […] Luciferase activity was measured after 16 h of treatment. […] The mRNA levels of Hmox1, Nqo1, Aox1, Glc, and Gclm after 8 h of treatment were determined by means of pRT-PCR and normalized by means of average LaminB, Gapdh, and β-actin. […]

[1] = Preliminary safety study, 4 weeks IP treatment in control and STZ-treated mice; format: in vivo, mouse
Description: FIG. 10. […] A preliminary safety profile of PHAR treatment was assessed in […] control and streptozotocin (STZ) treated mice. These mice were subjected to a daily IP dose of […] of vehicle (VEH; Tween-80:PBS, 1:13), or PHAR for 5 days a week for 4 weeks. A) weight evolution during the weeks of treatment. (B-E) serum analysis of the levels of albumin (B), total protein (C) and liver transaminases, aspartate transaminase, AST (D), and alanine transaminase, ALT (E). The ranges of normal values are highlighted with a green dashed line. The number of individuals per group is reflected in the graphs.
Preliminary safety studies have been performed in 7-week-old control and streptozotocin (STZ)-treated mice. These mice were subjected to an I.P treatment of 50 mg/kg of vehicle (Tween-80: PBS, 1:13) or PHAR for 4 weeks with 5 weekly doses. […] On the other hand, serum levels of albumin, total protein and two transaminases (AST and ALT) were analyzed.

With O=C1[C@@H]2[C@H](Cc3c[nH]c4ccccc34)N[C@]3(C(=O)Nc4ccc(Cl)cc43)[C@@H]2C(=O)N1c1ccc2c(c1)OCCO2 [PHAR] the “transcripts of Hmox1, Nqo1, Aox1, Gclc, Gclm” value (NRF2-regulated genes) was “increase in the corresponding transcripts was observed in all the cases”, the “body weight during treatment” value ([1]; control and STZ-treated mice, I.P 50 mg/kg, 5 weekly doses, 4 weeks) was “did not lose weight” and the “serum albumin, total protein, AST and ALT” value ([1]; control and STZ-treated mice, I.P 50 mg/kg, 5 weekly doses, after 4 weeks) was “values within normal ranges”. The “toxicity of chronic / prolonged administration” value ([1]; mice, daily IP 5 days a week for 4 weeks) was “does not produce toxicity; also recorded: prolonged administration of PHAR is safe”.

— patent US12590100B2, “Tetrahydro-spiroindoline-pyrrolopyrrole-triones inhibitors of the NRF2-β-TrCP interaction for use in the treatment of fatty liver disease” (Universidad Autonoma De Madrid, priority 2021, dated 2026)
